Source: patent US20210045385A1, “PYRIDAZINONE-SUBSTITUTED KETOXIMES AS HERBICIDES” (FMC Corporation, priority 2018, published 2021)

Key:
Format in all cases: in vivo
[1] = system: Italian ryegrass (Lolium multiflorum); assay: Test A preemergence, visual plant response rating; conditions: for Ryegrass, Italian plant response rating: 125 g ai/ha, preemergence, 0 to 100 scale, 0 no effect, 100 complete control; for Ryegrass, Italian plant response rating (0 to 100 scale): 500 g ai/ha Preemergence, approx. 10 days
Summary of the method: (§1)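 Greenhouse pot test in loam–sand soil mix: compound in a surfactant-containing non-phytotoxic solvent applied preemergence (directed soil spray) or postemergence (one- to two-leaf plants, 2–10 cm). Injury scored visually after ~10 days, 0–100.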

[2] = system: barnyardgrass (Echinochloa crus-galli); assay: Test A preemergence, visual plant response rating; conditions: for Barnyardgrass plant response rating: 125 g ai/ha, preemergence, 0 to 100 scale, 0 no effect, 100 complete control; for Barnyardgrass plant response rating (0 to 100 scale): 500 g ai/ha Preemergence, approx. 10 days
Summary of the method: as §1

[3] = system: foxtail, giant (giant foxtail, Setaria faberii); assay: Test A preemergence, visual plant response rating; conditions: for Foxtail, Giant plant response rating: 125 g ai/ha, preemergence, 0 to 100 scale, 0 no effect, 100 complete control; for Foxtail, Giant plant response rating (0 to 100 scale): 500 g ai/ha Preemergence, approx. 10 days
Summary of the method: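 Formulated in a non-phytotoxic solvent mixture including surfactant, each test chemical was sprayed onto the soil surface after sowing, or onto seedlings 2 to 10 cm high. Roughly 10 days later, plants were compared with untreated controls and rated for injury from 0 (no effect) to 100 (complete control).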

kochia (Kochia scoparia) [4] = assay: Test A preemergence, visual plant response rating; conditions: for Kochia plant response rating: 125 g ai/ha, preemergence, 0 to 100 scale, 0 no effect, 100 complete control; for Kochia plant response rating (0 to 100 scale): 500 g ai/ha Preemergence, approx. 10 days
Summary of the method: as §1

[5] = system: pigweed (Amaranthus retroflexus); assay: Test A preemergence, visual plant response rating; conditions: for Pigweed plant response rating: 125 g ai/ha, preemergence, 0 to 100 scale, 0 no effect, 100 complete control; for Pigweed plant response rating (0 to 100 scale): 500 g ai/ha Preemergence, approx. 10 days
Summary of the method: as §1

[6] = system: ragweed (common ragweed, Ambrosia elatior); assay: Test A preemergence, visual plant response rating; conditions: for Ragweed plant response rating: 125 g ai/ha, preemergence, 0 to 100 scale, 0 no effect, 100 complete control; for Ragweed plant response rating (0 to 100 scale): 500 g ai/ha Preemergence, approx. 10 days
Summary of the method: as §1

[7] = system: Italian ryegrass (Lolium multiflorum); assay: Test A postemergence, visual plant response rating; conditions: for Ryegrass, Italian plant response rating (0 to 100 scale): 500 g ai/ha, postemergence, 0 is no effect, 100 is complete control; for Ryegrass, Italian plant response rating: Postemergence, 125 g ai/ha, 0 to 100 scale (0 no effect, 100 complete control)
Summary of the method: as §1

[8] = system: barnyardgrass (Echinochloa crus-galli); assay: Test A postemergence, visual plant response rating; conditions: for Barnyardgrass plant response rating (0 to 100 scale): 500 g ai/ha, postemergence, 0 is no effect, 100 is complete control; for Barnyardgrass plant response rating: Postemergence, 125 g ai/ha, 0 to 100 scale (0 no effect, 100 complete control)
Summary of the method: as §1

[9] = system: blackgrass (Alopecurus myosuroides); assay: Test A postemergence, visual plant response rating; conditions: for Blackgrass plant response rating (0 to 100 scale): 500 g ai/ha, postemergence, 0 is no effect, 100 is complete control; for Blackgrass plant response rating: Postemergence, 125 g ai/ha, 0 to 100 scale (0 no effect, 100 complete control)
Summary of the method: as §1

corn (Zea mays) = assay: Test A postemergence, visual plant response rating; conditions: for Corn plant response rating (0 to 100 scale): 500 g ai/ha, postemergence, 0 is no effect, 100 is complete control; for Corn plant response rating: Postemergence, 125 g ai/ha, 0 to 100 scale (0 no effect, 100 complete control)
Summary of the method: as §1

[10] = system: foxtail, giant (giant foxtail, Setaria faberii); assay: Test A postemergence, visual plant response rating; conditions: for Foxtail, Giant plant response rating (0 to 100 scale): 500 g ai/ha, postemergence, 0 is no effect, 100 is complete control; for Foxtail, Giant plant response rating: Postemergence, 125 g ai/ha, 0 to 100 scale (0 no effect, 100 complete control)
Summary of the method: as §1

[11] = system: galium (catchweed bedstraw, Galium aparine); assay: Test A postemergence, visual plant response rating; conditions: for Galium plant response rating (0 to 100 scale): 500 g ai/ha, postemergence, 0 is no effect, 100 is complete control; for Galium plant response rating: Postemergence, 125 g ai/ha, 0 to 100 scale (0 no effect, 100 complete control)
Summary of the method: as §1

kochia (Kochia scoparia) [12] = assay: Test A postemergence, visual plant response rating; conditions: for Kochia plant response rating (0 to 100 scale): 500 g ai/ha, postemergence, 0 is no effect, 100 is complete control; for Kochia plant response rating: Postemergence, 125 g ai/ha, 0 to 100 scale (0 no effect, 100 complete control)
Summary of the method: as §1

[13] = system: pigweed (Amaranthus retroflexus); assay: Test A postemergence, visual plant response rating; conditions: for Pigweed plant response rating (0 to 100 scale): 500 g ai/ha, postemergence, 0 is no effect, 100 is complete control; for Pigweed plant response rating: Postemergence, 125 g ai/ha, 0 to 100 scale (0 no effect, 100 complete control)
Summary of the method: as §1

[14] = system: ragweed (common ragweed, Ambrosia elatior); assay: Test A postemergence, visual plant response rating; conditions: for Ragweed plant response rating (0 to 100 scale): 500 g ai/ha, postemergence, 0 is no effect, 100 is complete control; for Ragweed plant response rating: Postemergence, 125 g ai/ha, 0 to 100 scale (0 no effect, 100 complete control)
Summary of the method: as §1

[15] = system: wheat (Triticum aestivum); assay: Test A postemergence, visual plant response rating; conditions: for Wheat plant response rating (0 to 100 scale): 500 g ai/ha, postemergence, 0 is no effect, 100 is complete control; for Wheat plant response rating: Postemergence, 125 g ai/ha, 0 to 100 scale (0 no effect, 100 complete control)
Summary of the method: as §1

[16] = system: barnyardgrass (Echinochloa crus-galli); assay: Test B flooded paddy test, visual plant response rating; conditions: 250 g ai/ha, Flood, applied to paddy water, 2-leaf stage, evaluated after 13 to 15 days
Summary of the method: (§2)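 Compounds added straight into paddy water of pots flooded to 3 cm, with 2-leaf-stage plants of the four species; water level held throughout.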

[17] = system: ducksalad (Heteranhera limosa); assay: as above; conditions: 250 g ai/ha, Flood, applied to paddy water, 2-leaf stage, evaluated after 13 to 15 days
Summary of the method: as §2

rice (Oryza sativa) = assay: as above; conditions: 250 g ai/ha, Flood, applied to paddy water, 2-leaf stage, evaluated after 13 to 15 days
Summary of the method: as §2

[18] = system: sedge, umbrella (small-flower umbrella sedge, Cyperus difformis); assay: as above; conditions: 250 g ai/ha, Flood, applied to paddy water, 2-leaf stage, evaluated after 13 to 15 days
Summary of the method: as §2

Structure (SMILES) | Ryegrass, Italian plant response rating [1] | Ryegrass, Italian plant response rating (0 to 100 scale) [1] | Barnyardgrass plant response rating [2] | Barnyardgrass plant response rating (0 to 100 scale) [2] | Foxtail, Giant plant response rating [3] | Foxtail, Giant plant response rating (0 to 100 scale) [3] | Kochia plant response rating (kochia (Kochia scoparia) [4]) | Kochia plant response rating (0 to 100 scale) (kochia (Kochia scoparia) [4]) | Pigweed plant response rating [5] | Pigweed plant response rating (0 to 100 scale) [5] | Ragweed plant response rating [6] | Ragweed plant response rating (0 to 100 scale) [6] | Ryegrass, Italian plant response rating (0 to 100 scale) [7] | Ryegrass, Italian plant response rating [7] | Barnyardgrass plant response rating (0 to 100 scale) [8] | Barnyardgrass plant response rating [8] | Blackgrass plant response rating (0 to 100 scale) [9] | Blackgrass plant response rating [9] | Corn plant response rating (0 to 100 scale) (corn (Zea mays)) | Corn plant response rating (corn (Zea mays)) | other results
CCc1ccccc1/C(=N\OC)c1c(O)c(C)nn(C)c1=O [Compound 69] | 10 | 80 | 0 | 10 | 10 | 30 | 0 | 10 | 10 | 70 | 10 | 40 | 80 | 80 | 30 | 20 | 60 | 10 | 20 | 0 | Foxtail, Giant plant response rating (0 to 100 scale) [10]: 40; Foxtail, Giant plant response rating [10]: 10; Galium plant response rating (0 to 100 scale) [11]: 80; Galium plant response rating [11]: 70; Kochia plant response rating (0 to 100 scale) (kochia (Kochia scoparia) [12]): 70; Kochia plant response rating (kochia (Kochia scoparia) [12]): 50; Pigweed plant response rating (0 to 100 scale) [13]: 70; Pigweed plant response rating [13]: 40; Ragweed plant response rating (0 to 100 scale) [14]: 70; Ragweed plant response rating [14]: 70; Wheat plant response rating (0 to 100 scale) [15]: 0; Wheat plant response rating [15]: 0; Plant response rating, Barnyardgrass (0 to 100 scale, 0 is no effect, 100 is complete control) [16]: 0; Plant response rating, Ducksalad (0 to 100 scale, 0 is no effect, 100 is complete control) [17]: 0; Plant response rating, Rice (0 to 100 scale, 0 is no effect, 100 is complete control) (rice (Oryza sativa)): 0; Plant response rating, Sedge, Umbrella (0 to 100 scale, 0 is no effect, 100 is complete control) [18]: 0
CON=C(c1cccc(C)c1F)c1c(O)c(C)nn(C)c1=O [Compound 70] | 0 | 10 | 0 | 10 | 0 | 10 | 0 | 50 | 0 | 40 | 70 | 80 | 70 | 0 | 30 | 0 | 30 | 0 | 0 | 0 | Foxtail, Giant plant response rating (0 to 100 scale) [10]: 40; Foxtail, Giant plant response rating [10]: 0; Galium plant response rating (0 to 100 scale) [11]: 80; Galium plant response rating [11]: 70; Kochia plant response rating (0 to 100 scale) (kochia (Kochia scoparia) [12]): 80; Kochia plant response rating (kochia (Kochia scoparia) [12]): 70; Pigweed plant response rating (0 to 100 scale) [13]: 90; Pigweed plant response rating [13]: 80; Ragweed plant response rating (0 to 100 scale) [14]: 80; Ragweed plant response rating [14]: 80; Wheat plant response rating (0 to 100 scale) [15]: 0; Wheat plant response rating [15]: 0; Plant response rating, Barnyardgrass (0 to 100 scale, 0 is no effect, 100 is complete control) [16]: 0; Plant response rating, Ducksalad (0 to 100 scale, 0 is no effect, 100 is complete control) [17]: 0; Plant response rating, Rice (0 to 100 scale, 0 is no effect, 100 is complete control) (rice (Oryza sativa)): 0; Plant response rating, Sedge, Umbrella (0 to 100 scale, 0 is no effect, 100 is complete control) [18]: 0
CO/N=C(\c1cccc(C(F)(F)F)c1)c1c(O)c(C)nn(C)c1=O [Compound 71] | 0 | 20 | 0 | 0 | 0 | 0 | 0 | 0 | 20 | 60 | 10 | 30 | 40 | 40 | 30 | 10 | 50 | 20 | 10 | 0 | Foxtail, Giant plant response rating (0 to 100 scale) [10]: 20; Foxtail, Giant plant response rating [10]: 10; Galium plant response rating (0 to 100 scale) [11]: 80; Galium plant response rating [11]: 60; Kochia plant response rating (0 to 100 scale) (kochia (Kochia scoparia) [12]): 60; Kochia plant response rating (kochia (Kochia scoparia) [12]): 50; Pigweed plant response rating (0 to 100 scale) [13]: 70; Pigweed plant response rating [13]: 60; Ragweed plant response rating (0 to 100 scale) [14]: 60; Ragweed plant response rating [14]: 20; Wheat plant response rating (0 to 100 scale) [15]: 40; Wheat plant response rating [15]: 20; Plant response rating, Barnyardgrass (0 to 100 scale, 0 is no effect, 100 is complete control) [16]: 0; Plant response rating, Ducksalad (0 to 100 scale, 0 is no effect, 100 is complete control) [17]: 0; Plant response rating, Rice (0 to 100 scale, 0 is no effect, 100 is complete control) (rice (Oryza sativa)): 10; Plant response rating, Sedge, Umbrella (0 to 100 scale, 0 is no effect, 100 is complete control) [18]: 0
